# In US20060241038A1, “Therapeutic agent for Abeta related disorders” (Eisai Co., Ltd., priority 2005, published 2006):
# Entries after “also recorded” stand apart in the source; their conditions may differ.
# Legend:
# Aβ42 = experiment: ELISA quantification of Aβ42 in rat fetal brain-derived nerve cell culture medium; assay type: cell-based; details: 3 days culture; effect stated as concentration-dependent (FIGS. 7-1 to 7-3)
# Procedure: (§1) At 4 days after initiation of culturing, the test compounds synthesized in the preceding Examples, i.e., Compound A, Compound B (CAS#501907-79-5) or Compound C (CAS#670250-40-5) were added as follows. The medium was entirely removed and replaced by Neurobasal/B27/2ME free from 2-ME (i.e., Neurobasal/B27) in a volume of 11 ml/dish. The test compounds (Compounds A, B and C) in DMSO were diluted with Neurobasal/B27 to 100-fold of their final concentration and added in a volume of 110 μl/dish, followed by sufficient mixing. The final DMSO concentration was kept at 1% or below. The control group received DMSO alone.
# (§2) After addition of the test compounds, the cells were cultured for 3 days and the whole volume of the medium was collected from each dish. The resulting medium was provided as a MALDI-TOF/MS sample.
# (§3) A part of each medium collected in Example 7(3) aforementioned was used as an ELISA sample. Each sample was not diluted for Aβ42 measurement, while it was diluted 5-fold for Aβ40 measurement with a diluent attached to an ELISA kit before being subjected to ELISA.
# (§4) Aβ ELISA was performed using a Human Amyloid beta (1-42) Assay Kit (#17711, IBL Co., Ltd.) and a Human Amyloid beta (1-40) Assay Kit (#17713, IBL Co., Ltd.) in accordance with the kit's recommended protocol (the procedures described in the attached document), provided that a calibration curve for each Aβ was prepared using beta-amyloid peptide 1-42 (rat) or beta-amyloid peptide 1-40 (rat) (Calbiochem. #171596[Aβ4 2] or #171593[Aβ4 0]). The results were expressed as percentages (% of Control) relative to the Aβ concentration in the medium from the control group (untreated group, Control).
# [1] = system: Aβ fragments in rat fetal brain-derived nerve cell culture medium; experiment: MALDI-TOF/MS analysis of Aβ in rat fetal brain-derived nerve cell culture medium; assay type: cell-based; details: 3 days culture with various concentrations of test compound; normalized to internal standard Aβ12-28
# Procedure: In the same manner as shown in Example 3 above, brain cortex-derived nerve cells were prepared from Wistar rats at 18 days of embryonic age. The nerve cell suspension was diluted with a medium and seeded onto 10 cm polystyrene culture dishes pre-coated with poly-D-lysine (BIOCOAT® cell environments Poly-D-lysine cell culture dish, Becton Dickinson Labware) in a volume of 15 ml/dish so as to give an initial cell density of 3.5×10^5 cells/cm^2. After the seeded cells were cultured for 1 day in an incubator with 5% CO2, 95% air at 37° C., the medium was entirely replaced by fresh Neurobasal/B27/2ME, followed by culturing for an additional 3 days.
# as §1, §2
# Each sampled culture supernatant was collected in a 15 mL centrifuge tube and supplemented with 400 μL of a 25-fold concentrated solution of protease inhibitor cocktail Complete (Roche Diagnostics GmbH), followed by centrifugation at 4° C. at 3,000 rotations/minute for 5 minutes to sediment cell fragments. The resulting supernatant was transferred to another 15 mL centrifuge tube and supplemented with synthetic Aβ12-28 (Bachem) as an internal standard at a final concentration of 2 nM, followed by addition of 5 μg anti-Aβ monoclonal antibody (clone name: 4G8, Signet Laboratories, Inc). Subsequently, 5 μL of Protein G plus Protein A Agarose (Oncogene Research Products) was added after being blocked at 4° C. with 2% BSA and washed with TBS buffer. Further, 3-[(3-cholamidopropyl)dimethylammonio]-1-propanesulfonate (CHAPS; SIGMA) was added to each tube at a final concentration of 1%, followed by mixing at 4° C. for 4 to 8 hours.
# The Protein G plus Protein A Agarose holding the immunoprecipitated Aβ fragments adsorbed thereto was collected from each tube by centrifugation at 4° C. at 3,000 rotations/minute for 5 minutes and transferred to a 1.5 mL microtube. The Protein G plus Protein A Agarose was washed twice with 500 μL of 140 mM NaCl, 0.1% N-Octyl Glucoside (NOG; Loche Diagnostics GmbH), 10 mM Tris-HCl, pH 8, once with 500 μL of Tris-HCl, 10 mM, pH 8, and then once with 500 μL of ion exchanged water. After washing with ion exchanged water, as much fluid as possible was removed from each tube and Aβs were eluted with 5 μL of 0.2% NOG, 2.4% trifluoroacetic acid (TFA; PIERCE) and 48.7% acetonitrile (HPLC grade, Wako Pure Chemical Industries, Ltd.). Independently of this, α-cyano-4-hydroxy-cinnamic acid (CHCA; BRUKER DALTONICS) was dissolved in 0.2% NOG, 0.1% TFA and 33% acetonitrile at a saturating concentration and supplemented with human insulin (Peptide Institute, Inc.) and angiotensin III (Peptide Institute, Inc.) as mass standards at fmal concentrations of 167 nM and 56 nM, respectively, for use as a matrix solution. Each Aβ eluate (0.5 μL) and the matrix solution (0.5 μL) were spotted at the same position on a sample plate for mass spectrometry and air-dried at room temperature, followed by analysis with a mass spectrometer Voyager DE (Applied Biosystems). All mass data detected were corrected for the mass of human insulin and angiotensin III (5807.6 and 931.1, respectively). […]
# Aβ40 = experiment: ELISA quantification of Aβ40 in rat fetal brain-derived nerve cell culture medium; assay type: cell-based; details: 3 days culture; effect stated as concentration-dependent (FIGS. 7-1 to 7-3)
# Procedure: as §1, §2, §3, §4
# [2] = Thioflavin T (ThT) analysis for aggregation ability of each Aβ; assay type: physicochemical; details: each Aβ alone, in 10 mM HEPES containing 0.9% NaCl, 37° C.; 10 μM ThT
# Procedure: (§5) After addition of ThT (SIGMA) at a final concentration of 10 μM, each sample was transferred to a 96-well black plate (Corning) and stirred for 10 seconds, followed by measuring the fluorescence intensity for each sample. Using a fluorospectrometer (LJL Biosystems), the fluorescence intensity at a wavelength of 490 nm was measured with an excitation light of 450 nm wavelength.
# Aβ42 production = details: reported in 2001 (refs 13, 14); cited from earlier work
# Aβ1-42 [3] = target: T1, Aβ1-42 (Homo sapiens, UniProt P05067); experiment: CD measurement on a 1:3 mixture of Aβ1-42 and each Aβ (β-sheet structure formation in Aβ1-42); assay type: biochemical; details: 5 μM Aβ1-42 mixed with 15 μM of the Aβ (1:3)
# T1 construct: purchased Peptide Institute, Inc. 4349-v
# Procedure: The solution was then dispensed in 10 to 30 μL aliquots into 500 μL polypropylene microtubes and stored at −80° C. until use. The Aβ solutions in HFIP were evaporated using a centrifugal evaporator (Tomy Seiko Co., Ltd., CC-180 and ST-10) to remove HFIP and then dissolved in a solution of 10 mM HEPES containing 0.9% NaCl. Each of the resulting Aβ solution was incubated at 37° C. and measured for their CD at different time points. […] The Aβ-containing solutions were injected into washed quartz cells with an optical path length of 1 or 2 mm and measured for their CD. Until measurement, the quartz cells were allowed to stand at 37° C., 100% humidity.
# Aβ1-42 [4] = target: T1, Aβ1-42; experiment: ThT fluorescence of 1:3 mixtures of Aβ1-42 and each Aβ; assay type: biochemical; details: Aβ1-42 mixed with the Aβ at a ratio of 1:3
# Procedure: as §5
# [5] = Circular dichroism (CD) analysis of each Aβ (secondary structure); assay type: physicochemical; details: each Aβ alone, 37° C., until 5 days
# Procedure: The solution was then dispensed in 10 to 30 μL aliquots into 500 μL polypropylene microtubes and stored at −80° C. until use.
# The Aβ solutions in HFIP were evaporated using a centrifugal evaporator (Tomy Seiko Co., Ltd., CC-180 and ST-10) to remove HFIP and then dissolved in a solution of 10 mM HEPES containing 0.9% NaCl. Each of the resulting Aβ solution was incubated at 37° C. and measured for their CD at different time points.
# The Aβ-containing solutions were injected into washed quartz cells with an optical path length of 1 or 2 mm and measured for their CD. Until measurement, the quartz cells were allowed to stand at 37° C., 100% humidity.
Compound,"Aβ42 production (ELISA, % of Control) (Aβ42)",Aβ1-37 or Aβ11-37 production (MALDI-TOF/MS) [1],Aβ1-38 or Aβ11-38 production (MALDI-TOF/MS) [1],Aβ1-40 or Aβ11-40 production (MALDI-TOF/MS) [1],"Aβ1-42 or Aβ11-42 (peak intensity, MALDI-TOF/MS) [1]","Aβ40 production (ELISA, % of Control) (Aβ40)",fluorescence intensity of ThT (content of β-sheet structure) with incubation time [2],other results
"COc1cc(/C=C/C(=O)NCc2cccc(-c3ccccc3)c2)ccc1-n1cnc(C)c1 [Compound A, (E)-N-biphenyl-3-ylmethyl-3-[3-methoxy-4-(4-methylimidazol-1-yl)phenyl]acrylamide]",inhibited,enhanced in a manner dependent on the concentration of Compound A,enhanced in a manner dependent on the concentration of Compound A,inhibited in a manner dependent on the concentration of Compound A,no detectable change,inhibited,–,–
"Aβ1-42: human-type Aβ1-42 (Peptide Institute, Inc., Prod. # 4349-v); amyloid β peptide",–,–,–,–,–,–,increased with increasing incubation time,–
CC(C)Cc1ccc(C(C)C(=O)O)cc1 (stereo not shown) [ibuprofen],–,–,–,–,–,–,–,effect on Aβ42 production (Aβ42 production): selectively inhibit Aβ42 production
"N#Cc1ccc(NC(=O)NC(=N)Nc2ccc(Cl)cc2)cc1 [Compound B, N-{[(4-chlorophenyl)amino]iminomethyl}-N′-(4-cyanophenyl)urea]",inhibited,enhanced in a manner dependent on the concentration of Compound B,enhanced in a manner dependent on the concentration of Compound B,inhibited in a manner dependent on the concentration of Compound B,no detectable change,inhibited,–,–
"Aβ1-40: human-type Aβ1-40 (Peptide Institute, Inc., Prod. # 4307-v); amyloid β peptide",–,–,–,–,–,–,no increase in the fluorescence intensity,"effect on β-sheet structure formation in Aβ1-42 (CD) (Aβ1-42 [3]): weaker than that of Aβ1-37 or Aβ1-38; time after mixing with Aβ1-42 at which a CD spectrum indicative of β-sheet structure was detected (Aβ1-42 [3]; 37° C., Aβ1-42+buffer showed β-sheet from 1 day): 2 days; increase in ThT fluorescence intensity (β-sheet structure formation) of Aβ1-42 compared to Aβ1-42 alone (Aβ1-42 [4]): the formation of β-sheet structure was inhibited; also recorded: the increase in the fluorescence intensity was inhibited; likelihood of forming a β-sheet structure (CD), compared with Aβ1-42 [5]: less likely to form a β-sheet structure than Aβ1-42"
"CNC(=O)n1ccc2cc(Oc3ccnc(NC(=O)N[C@H](CO)C(=O)N4CCCCC4)c3)ccc21 [Compound C, 5-{2-{3-[(1R)-1-hydroxymethyl-2-oxo-2-piperidin-1-ylethyl]ureido}pyridin-4-yloxy}-1H-indole-1-carboxylic acid methylamide]",inhibited,enhanced in a manner dependent on the concentration of Compound C,–,tended to be inhibited,no detectable change,inhibited,–,Aβ1-39 or Aβ11-39 production (MALDI-TOF/MS) [1]: enhanced in a manner dependent on the concentration of Compound C
